Measured values published in ChEMBL document CHEMBL1671662, “In vitro activities of telavancin and six comparator agents against anaerobic bacterial isolates” (2009).
≈ marks a conversion by molar mass, not a printed value.

How the values were obtained:
Streptococcus anginosus = assay: Antibacterial activity against Streptococcus anginosus by CLSI M11-A6 agar dilution method; type: functional
Finegoldia magna = assay: Antibacterial activity against Finegoldia magna by CLSI M11-A6 agar dilution method; type: functional
[1] = system: Coprobacillus cateniformis; assay: Antibacterial activity against Coprobacillus cateniformis by CLSI M11-A6 agar dilution method; type: functional
Clostridium hathewayi = assay: Antibacterial activity against Clostridium hathewayi by CLSI M11-A6 agar dilution method; type: functional; settings: Hungatella hathewayi
Prevotella intermedia = assay: Antibacterial activity against Prevotella P intermedia by CLSI M11-A6 agar dilution method; type: functional
Collinsella aerofaciens = assay: Antibacterial activity against Colinsella aerofaciens by CLSI M11-A6 agar dilution method; type: functional
Coriobacterium = assay: Antibacterial activity against […] by CLSI M11-A6 agar dilution method; type: functional
Bifidobacterium longum = assay: Antibacterial activity against Bifidobacterium longum by CLSI M11-A6 agar dilution method; type: functional
Ruminococcus lactaris = assay: Antibacterial activity against Ruminococcus lactaris by CLSI M11-A6 agar dilution method; type: functional
[2] = system: Bifidobacterium pseudolongum; assay: Antibacterial activity against Bifidobacterium pseudolongum by CLSI M11-A6 agar dilution method; type: functional
[3] = system: Bacteroides thetaiotaomicron; assay: Antibacterial activity against Bacteroides thetaiotaomicron by CLSI M11-A6 agar dilution method; type: functional
Ruminococcus torques = assay: Antibacterial activity against Ruminococcus torques by CLSI M11-A6 agar dilution method; type: functional; settings: Mediterraneibacter torques
Clostridium disporicum = assay: Antibacterial activity against Clostridium disporicum by CLSI M11-A6 agar dilution method; type: functional
Clostridium bartlettii = assay: Antibacterial activity against Clostridium bartlettii by CLSI M11-A6 agar dilution method; type: functional; settings: Intestinibacter bartlettii
Prevotella bivia = assay: Antibacterial activity against Prevotella bivia by CLSI M11-A6 agar dilution method; type: functional
Blautia luti = assay: Antibacterial activity against Ruminococcus luti by CLSI M11-A6 agar dilution method; type: functional
[4] = system: Clostridium paraputrificum; assay: Antibacterial activity against Clostridium paraputrificum by CLSI M11-A6 agar dilution method; type: functional
Prevotella corporis = assay: Antibacterial activity against Prevotella corporis by CLSI M11-A6 agar dilution method; type: functional
[5] = system: Catenibacterium mitsuokai; assay: Antibacterial activity against Catenibacterium mitsuokai by CLSI M11-A6 agar dilution method; type: functional
[6] = system: Streptococcus intermedius; assay: Antibacterial activity against Streptococcus intermedius by CLSI M11-A6 agar dilution method; type: functional
Prevotella oris = assay: Antibacterial activity against Prevotella oris by CLSI M11-A6 agar dilution method; type: functional; settings: Segatella oris
Flavonifractor plautii = assay: Antibacterial activity against Clostridium orbiscindens by CLSI M11-A6 agar dilution method; type: functional
Clostridium butyricum = assay: Antibacterial activity against Clostridium butyricum by CLSI M11-A6 agar dilution method; type: functional
Clostridium sp. = assay: Antibacterial activity against Clostridium sp. by CLSI M11-A6 agar dilution method; type: functional
Prevotella nigrescens = assay: Antibacterial activity against Prevotella nigrescens by CLSI M11-A6 agar dilution method; type: functional
Odoribacter splanchnicus = assay: Antibacterial activity against Bacteroides splanchnicus by CLSI M11-A6 agar dilution method; type: functional
Prevotella buccae = assay: Antibacterial activity against Prevotella buccae by CLSI M11-A6 agar dilution method; type: functional; settings: Segatella buccae
Fusobacterium varium = assay: Antibacterial activity against Fusobacterium varium by CLSI M11-A6 agar dilution method; type: functional
Clostridium sporogenes = assay: Antibacterial activity against Clostridium sporogenes by CLSI M11-A6 agar dilution method; type: functional
Parabacteroides merdae = assay: Antibacterial activity against Parabacteroides merdae by CLSI M11-A6 agar dilution method; type: functional
[7] = system: Peptoniphilus asaccharolyticus; assay: Antibacterial activity against Peptoniphilus asaccharolyticus by CLSI M11-A6 agar dilution method; type: functional
Clostridium spiroforme = assay: Antibacterial activity against Clostridium spiroforme by CLSI M11-A6 agar dilution method; type: functional; settings: Thomasclavelia spiroformis
Clostridioides difficile = assay: Antibacterial activity against Clostridium difficile by CLSI M11-A6 agar dilution method; type: functional
Clostridium subterminale = assay: Antibacterial activity against Clostridium subterminale by CLSI M11-A6 agar dilution method; type: functional
[8] = system: Bifidobacterium adolescentis; assay: Antibacterial activity against Bifidobacterium adolescentis by CLSI M11-A6 agar dilution method; type: functional
Ruminococcus obeum = assay: Antibacterial activity against Ruminococcus obeum by CLSI M11-A6 agar dilution method; type: functional; settings: Blautia obeum
[9] = system: Paeniclostridium sordellii; assay: Antibacterial activity against Clostridium sordellii by CLSI M11-A6 agar dilution method; type: functional; settings: Paraclostridium sordellii
Clostridium perfringens = assay: Antibacterial activity against Clostridium perfringens by CLSI M11-A6 agar dilution method; type: functional
Anaerococcus tetradius = assay: Antibacterial activity against Anaerococcus tetradius by CLSI M11-A6 agar dilution method; type: functional
[10] = system: Clostridium sporosphaeroides; assay: Antibacterial activity against Clostridium sporosphaeroides by CLSI M11-A6 agar dilution method; type: functional; settings: Faecalispora sporosphaeroides
[11] = Antibacterial activity against Bifidobacterium infantis by CLSI M11-A6 agar dilution method; type: functional, Bifidobacterium longum subsp. infantis; settings: Bifidobacterium longum
Ruminococcus albus = assay: Antibacterial activity against Ruminococcus albus by CLSI M11-A6 agar dilution method; type: functional; settings: Hominimerdicola alba
[12] = system: Clostridium celerecrescens; assay: Antibacterial activity against Clostridium celerecrescens by CLSI M11-A6 agar dilution method; type: functional; settings: Lacrimispora celerecrescens

## Cc1ncc([N+](=O)[O-])n1CCO [METRONIDAZOLE]
Streptococcus anginosus
  MIC50: 128 µg/mL (≈ 748 µM)
  MIC90: > 128 µg/mL
Finegoldia magna
  MIC50: 0.5 µg/mL (≈ 2.92 µM)
  MIC90: 2 µg/mL (≈ 11.7 µM)
[1]
  MIC50: 1 µg/mL (≈ 5.84 µM)
  MIC90: 128 µg/mL (≈ 748 µM)
Clostridium hathewayi
  MIC50: 0.25 µg/mL (≈ 1.46 µM)
  MIC90: 0.5 µg/mL (≈ 2.92 µM)
Prevotella intermedia
  MIC50: 0.5 µg/mL (≈ 2.92 µM)
  MIC90: 1 µg/mL (≈ 5.84 µM)
Collinsella aerofaciens
  MIC50: 1 µg/mL (≈ 5.84 µM)
  MIC90: 128 µg/mL (≈ 748 µM)
Coriobacterium
  MIC50: 1 µg/mL (≈ 5.84 µM)
  MIC90: 128 µg/mL (≈ 748 µM)
Bifidobacterium longum
  MIC50: 1 µg/mL (≈ 5.84 µM)
  MIC90: 128 µg/mL (≈ 748 µM)
Ruminococcus lactaris
  MIC50: ≤ 0.12 µg/mL
  MIC90: 0.25 µg/mL (≈ 1.46 µM)
[2]
  MIC50: 1 µg/mL (≈ 5.84 µM)
  MIC90: 128 µg/mL (≈ 748 µM)
[3]
  MIC50: 1 µg/mL (≈ 5.84 µM)
  MIC90: 1 µg/mL (≈ 5.84 µM)
Ruminococcus torques
  MIC50: ≤ 0.12 µg/mL
  MIC90: 0.25 µg/mL (≈ 1.46 µM)
Clostridium disporicum
  MIC50: 0.25 µg/mL (≈ 1.46 µM)
  MIC90: 1 µg/mL (≈ 5.84 µM)
Clostridium bartlettii
  MIC50: 0.25 µg/mL (≈ 1.46 µM)
  MIC90: 1 µg/mL (≈ 5.84 µM)
Prevotella bivia
  MIC50: 0.5 µg/mL (≈ 2.92 µM)
  MIC90: 1 µg/mL (≈ 5.84 µM)
Blautia luti
  MIC50: ≤ 0.12 µg/mL
  MIC90: 0.25 µg/mL (≈ 1.46 µM)
[4]
  MIC50: 0.25 µg/mL (≈ 1.46 µM)
  MIC90: 1 µg/mL (≈ 5.84 µM)
Prevotella corporis
  MIC50: 0.5 µg/mL (≈ 2.92 µM)
  MIC90: 1 µg/mL (≈ 5.84 µM)
[5]
  MIC50: 1 µg/mL (≈ 5.84 µM)
  MIC90: 128 µg/mL (≈ 748 µM)
[6]
  MIC50: 128 µg/mL (≈ 748 µM)
  MIC90: > 128 µg/mL
Prevotella oris
  MIC50: 0.5 µg/mL (≈ 2.92 µM)
  MIC90: 1 µg/mL (≈ 5.84 µM)
Flavonifractor plautii
  MIC50: 0.25 µg/mL (≈ 1.46 µM)
  MIC90: 1 µg/mL (≈ 5.84 µM)
Clostridium butyricum
  MIC50: 0.25 µg/mL (≈ 1.46 µM)
  MIC90: 1 µg/mL (≈ 5.84 µM)
Clostridium sp.
  MIC50: 0.25 µg/mL (≈ 1.46 µM)
  MIC90: 1 µg/mL (≈ 5.84 µM)
Prevotella nigrescens
  MIC50: 0.5 µg/mL (≈ 2.92 µM)
  MIC90: 1 µg/mL (≈ 5.84 µM)
Odoribacter splanchnicus
  MIC50: 0.25 µg/mL (≈ 1.46 µM)
  MIC90: 1 µg/mL (≈ 5.84 µM)
Prevotella buccae
  MIC50: 0.5 µg/mL (≈ 2.92 µM)
  MIC90: 1 µg/mL (≈ 5.84 µM)
Fusobacterium varium
  MIC50: ≤ 0.12 µg/mL
  MIC90: 0.25 µg/mL (≈ 1.46 µM)
Clostridium sporogenes
  MIC50: 0.25 µg/mL (≈ 1.46 µM)
  MIC90: 1 µg/mL (≈ 5.84 µM)
Parabacteroides merdae
  MIC50: 1 µg/mL (≈ 5.84 µM)
  MIC90: 2 µg/mL (≈ 11.7 µM)
[7]
  MIC50: 0.5 µg/mL (≈ 2.92 µM)
  MIC90: 2 µg/mL (≈ 11.7 µM)
Clostridium spiroforme
  MIC50: 0.25 µg/mL (≈ 1.46 µM)
  MIC90: 1 µg/mL (≈ 5.84 µM)
Clostridioides difficile
  MIC50: 0.5 µg/mL (≈ 2.92 µM)
  MIC90: 0.5 µg/mL (≈ 2.92 µM)
Clostridium subterminale
  MIC50: ≤ 0.12 µg/mL
  MIC90: 0.25 µg/mL (≈ 1.46 µM)
[8]
  MIC50: 1 µg/mL (≈ 5.84 µM)
  MIC90: 128 µg/mL (≈ 748 µM)
Ruminococcus obeum
  MIC50: ≤ 0.12 µg/mL
  MIC90: ≤ 0.12 µg/mL
[9]
  MIC50: 0.25 µg/mL (≈ 1.46 µM)
  MIC90: 1 µg/mL (≈ 5.84 µM)
Clostridium perfringens
  MIC50: 0.5 µg/mL (≈ 2.92 µM)
  MIC90: 1 µg/mL (≈ 5.84 µM)
Anaerococcus tetradius
  MIC50: 0.5 µg/mL (≈ 2.92 µM)
  MIC90: 2 µg/mL (≈ 11.7 µM)
[10]
  MIC50: 0.25 µg/mL (≈ 1.46 µM)
  MIC90: 1 µg/mL (≈ 5.84 µM)
[11]
  MIC50: 1 µg/mL (≈ 5.84 µM)
  MIC90: 128 µg/mL (≈ 748 µM)
Ruminococcus albus
  MIC50: ≤ 0.12 µg/mL
  MIC90: 0.25 µg/mL (≈ 1.46 µM)
[12]
  MIC50: 0.25 µg/mL (≈ 1.46 µM)
  MIC90: 1 µg/mL (≈ 5.84 µM)
